Measured values as given in ChEMBL document CHEMBL1143055, “2,3,5-Substituted tetrahydrofurans as cancer chemopreventives. Part 1: synthesis and anti-cancer activities of 5-hydroxymethyl-2,3-diaryl-tetrahydro-furan-3-ols” (2007).

Experiments:
SNB-75 = assay: Antitumor activity against human SNB75 cells; type: functional
HOP-62 = assay: Antitumor activity against human HOP62 cells; type: functional
CCRF-CEM [1] = assay: Antitumor activity against human CCRF-CEM cells; type: functional
EKVX = assay: Antitumor activity against human EKVX cells; type: functional
SK-OV-3 = assay: Antitumor activity against human SK-OV-3 cells; type: functional
HOP-92 = assay: Antitumor activity against human HOP92 cells; type: functional
A549 = assay: Antitumor activity against human A549 cells; type: functional
NCI-H23 = assay: Antitumor activity against human NCI-H23 cells; type: functional
SNB-19 = assay: Antitumor activity against human SNB19 cells; type: functional
NCI-H460 = assay: Antitumor activity against human NCI-H460 cells; type: functional
SF-268 = assay: Antitumor activity against human SF268 cells; type: functional
SK-MEL-28 = assay: Antitumor activity against human SK-MEL-28 cells; type: functional
RXF 393 = assay: Antitumor activity against human RXF393 cells; type: functional
SW-620 = assay: Antitumor activity against human SW620 cells; type: functional
TK-10 = assay: Antitumor activity against human TK10 cells; type: functional
HCT-15 = assay: Antitumor activity against human HCT15 cells; type: functional
OVCAR-3 = assay: Antitumor activity against human OVCAR-3 cells; type: functional
[2] = Antitumor activity against human […] cells; type: functional
HCC 2998 = assay: Antitumor activity against human HCC2998 cells; type: functional
LOX IMVI = assay: Antitumor activity against human LOX IMVI cells; type: functional
[3] = Antitumor activity against human HL60 (TB) cells; type: functional, HL-60(TB); conditions: HL-60
UACC-62 = assay: Antitumor activity against human UACC62 cells; type: functional
[4] = Antitumor activity against human HS 578T cells; type: functional
PC-3 = assay: Antitumor activity against human PC3 cells; type: functional
SF-539 = assay: Antitumor activity against human SF539 cells; type: functional
786-0 = assay: Antitumor activity against human 786-0 cells; type: functional
NCI/ADR-RES = assay: Antitumor activity against human NCI/ADR-RES cells; type: functional
SK-MEL-5 = assay: Antitumor activity against human SK-MEL-5 cells; type: functional
SN12C = assay: Antitumor activity against human SN12C cells; type: functional
ACHN = assay: Antitumor activity against human ACHN cells; type: functional
OVCAR-5 = assay: Antitumor activity against human OVCAR5 cells; type: functional
DU-145 = assay: Antitumor activity against human DU145 cells; type: functional
KM12 = assay: Antitumor activity against human KM12 cells; type: functional
NCI-H522 = assay: Antitumor activity against human NCI-H522 cells; type: functional
SR [5] = assay: Antitumor activity against human SR cells; type: functional
OVCAR-8 = assay: Antitumor activity against human OVCAR8 cells; type: functional
UO-31 = assay: Antitumor activity against human UO31 cells; type: functional
OVCAR-4 = assay: Antitumor activity against human OVCAR4 cells; type: functional
MCF7 = assay: Antitumor activity against human MCF7 cells; type: functional
CCRF-CEM [6] = assay: Growth inhibition of huam CCRF-CEM at 1 uM; type: functional; conditions: Homo sapiens
HCT-116 = assay: Antitumor activity against human HCT116 cells; type: functional
K562 = assay: Antitumor activity against human K562 cells; type: functional
IGROV-1 = assay: Antitumor activity against human IGROV1 cells; type: functional
CAKI-1 = assay: Antitumor activity against human CAKI-1 cells; type: functional
BT-549 = assay: Antitumor activity against human BT549 cells; type: functional
MDA-MB-435 = assay: Antitumor activity against human MDA-MB-435 cells; type: functional
U-251 = assay: Antitumor activity against human U251 cells; type: functional
HT-29 = assay: Antitumor activity against human HT29 cells; type: functional
MOLT-4 = assay: Antitumor activity against human MOLT4 cells; type: functional
UACC-257 = assay: Antitumor activity against human UACC257 cells; type: functional
COLO 205 = assay: Antitumor activity against human COLO205 cells; type: functional
SR [7] = assay: Growth inhibition of human SR cells at 1 uM; type: functional
SF-295 = assay: Antitumor activity against human SF295 cells; type: functional
[8] = Antitumor activity against human NCI-H322 cells; type: functional
RPMI-8226 = assay: Antitumor activity against human RPMI8226 cells; type: functional
Malme-3M = assay: Antitumor activity against human MALME-3M cells; type: functional
A498 = assay: Antitumor activity against human A498 cells; type: functional
NCI-H226 = assay: Antitumor activity against human NCI-H226 cells; type: functional

## COc1ccc([C@H]2O[C@@H](CO)C[C@]2(O)c2ccc(OC)cc2)cc1 (relative stereo)
SNB-75
  GI50: > 100 µM
HOP-62
  GI50: > 100 µM
CCRF-CEM [1]
  GI50: > 100 µM
EKVX
  GI50: > 100 µM
SK-OV-3
  GI50: > 100 µM
HOP-92
  GI50: 95.5 µM
A549
  GI50: > 100 µM
NCI-H23
  GI50: > 100 µM
SNB-19
  GI50: > 100 µM
NCI-H460
  GI50: > 100 µM
SF-268
  GI50: > 100 µM
SK-MEL-28
  GI50: > 100 µM
RXF 393
  GI50: 28.2 µM
SW-620
  GI50: > 100 µM
TK-10
  GI50: > 100 µM
HCT-15
  GI50: > 100 µM
OVCAR-3
  GI50: > 100 µM
[2]
  GI50: > 100 µM
HCC 2998
  GI50: > 100 µM
LOX IMVI
  GI50: > 100 µM
[3]
  GI50: 38.9 µM
UACC-62
  GI50: > 100 µM
[4]
  GI50: 39.8 µM
PC-3
  GI50: > 100 µM
SF-539
  GI50: > 100 µM
786-0
  GI50: > 100 µM
NCI/ADR-RES
  GI50: > 100 µM
SK-MEL-5
  GI50: > 100 µM
SN12C
  GI50: > 100 µM
ACHN
  GI50: > 100 µM
OVCAR-5
  GI50: > 100 µM
DU-145
  GI50: > 100 µM
KM12
  GI50: > 100 µM
NCI-H522
  GI50: > 100 µM
SR [5]
  GI50: 50.1 µM
OVCAR-8
  GI50: > 100 µM
UO-31
  GI50: > 100 µM
OVCAR-4
  GI50: > 100 µM
MCF7
  GI50: > 100 µM
CCRF-CEM [6]
  inhibition at 1 µM: 46%
HCT-116
  GI50: > 100 µM
K562
  GI50: > 100 µM
IGROV-1
  GI50: > 100 µM
CAKI-1
  GI50: > 100 µM
BT-549
  GI50: > 100 µM
MDA-MB-435
  GI50: > 100 µM
U-251
  GI50: > 100 µM
HT-29
  GI50: > 100 µM
MOLT-4
  GI50: > 100 µM
UACC-257
  GI50: > 100 µM
COLO 205
  GI50: > 100 µM
SR [7]
  inhibition at 1 µM: 36%
SF-295
  GI50: > 100 µM
[8]
  GI50: > 100 µM
RPMI-8226
  GI50: > 100 µM
Malme-3M
  GI50: > 100 µM
A498
  GI50: > 100 µM
NCI-H226
  GI50: > 100 µM
